The source of these data is patent US7803795B2, “Phthalazine derivatives as parp inhibitors” (Janssen Pharmaceutica N.V., priority 2004, dated 2010).

This experiment addresses T1, PARP-1 enzyme (Homo sapiens, UniProt P09874).
T1 construct: made in house
In words: in vitro Scintillation Proximity Assay (SPA) for PARP-1 inhibitory activity. The class given is biochemical. The settings on record: [3H]-NAD+, biotinylated histones, nicked DNA; dose-response 10^-5 M to 10^-8 M; read-out: in vitro SPA assay PARP-1 pIC50 (converted). On the procedure:
In vitro Scintillation Proximity Assay (SPA) for PARP-1 Inhibitory Activity
Compounds of the present invention were tested in an in vitro assay based on SPA technology (proprietary to Amersham Pharmacia Biotech).
In principle, the assay relies upon the well established SPA technology for the detection of poly(ADP-ribosylation of biotinylated target proteins, i.e histones. This ribosylation is induced using nicked DNA activated PARP-1 enzyme and [^3H]-nicotinamide adenine dinucleotide ([^3H]-NAD^+) as ADP-ribosyl donor.
As inducer of PARP-1 enzyme activity, nicked DNA was prepared. For this, 25 mg of DNA (supplier: Sigma) was dissolved in 25 ml DNAse buffer (10 mM Tris-HCl, pH 7.4; 0.5 mg/ml Bovine Serum Albumine (BSA); 5 mM MgCl2.6H2O and 1 mM KCl) to which 50 Al DNAse solution (1 mg/ml in 0.15 M NaCl) was added. After an incubation of 90 min. at 37° C., the reaction was terminated by adding 1.45 g NaCl, followed by a further incubation at 58° C. for 15 min. The reaction mixture was cooled on ice and dialysed at 4° C. for respectively 1.5 and 2 hours against 1.51 of 0.2 M KCl, and twice against 1.51 of 0.01 M KCl for 1.5 and 2 h respectively. The mixture was aliquoted and stored at −20° C. Histones (1 mg/ml, type II-A, supplier: Sigma) were biotinylated using the biotinylation kit of Amersham and stored aliquoted at −20° C. A stock solution of 100 mg/ml SPA poly(vinyl toluene) (PVT) beads (supplier: Amersham) was made in PBS. A stock solution of [^3H]-NAD^+ was made by adding 120 μl of [^3H]-NAD^+ (0.1 mCi/ml, supplier: NEN) to 6 ml incubation buffer (50 mM Tris/HCl, pH 8; 0.2 mM DTT; 4 mM MgCl2). A solution of 4 mM NAD^+ (supplier: Roche) was made in incubation buffer (from a 100 mM stock solution in water stored at −20° C.). The PARP-1 enzyme was produced using art known techniques, i.e. cloning and expression of the protein starting from human liver cDNA. Information concerning the used protein sequence of the PARP-1 enzyme including literature references can be found in the Swiss-Prot database under primary accession number P09874. Biotinylated histones and PVT-SPA beads were mixed and pre-incubated for 30 min. at room temperature. PARP-1 enzyme (concentration was lot dependent) was mixed with the nicked DNA and the mixture was pre-incubated for 30 min. at 4° C. Equal parts of this histones/PVT-SPA beads solution and PARP-1 enzyme/DNA solution were mixed and 75 μl of this mixture together with 1 μl of compound in DMSO and 25 μl of [^3H]-NAD^+ was added per well into a 96-well microtiterplate. The final concentrations in the incubation mixture were 2 μg/ml for the biotinylated histones, 2 mg/ml for the PVT-SPA beads, 2 μg/ml for the nicked DNA and between 5-10 μg/ml for the PARP-1 enzyme. After incubation of the mixture for 15 min. at room temperature, the reaction was terminated by adding 100 μl of 4 mM NAD^+ in incubation buffer (final concentration 2 mM) and plates were mixed.
The beads were allowed to sediment for at least 15 min. and plates transferred to a TopCountNXT™ (Packard) for scintillation counting, values were expressed as counts per minute (cpm). For each experiment, controls (containing PARP-1 enzyme and DMSO without compound), a blank incubation (containing DMSO but no PARP-1 enzyme or compound) and samples (containing PARP-1 enzyme and compound dissolved in DMSO) were run in parallel. All compounds tested were dissolved and eventually further diluted in DMSO. […] In each test, the blank value was subtracted from both the control and the sample values. The control sample represented maximal PARP-1 enzyme activity. For each sample, the amount of cpm was expressed as a percentage of the mean cpm value of the controls. When appropriate, IC50-values (concentration of the drug, needed to reduce the PARP-1 enzyme activity to 50% of the control) were computed using linear interpolation between the experimental points just above and below the 50% level. […]
On the technique in general: Scintillation proximity formats need no separation of bound from free tracer.

T1 sequence (P09874 whole entry): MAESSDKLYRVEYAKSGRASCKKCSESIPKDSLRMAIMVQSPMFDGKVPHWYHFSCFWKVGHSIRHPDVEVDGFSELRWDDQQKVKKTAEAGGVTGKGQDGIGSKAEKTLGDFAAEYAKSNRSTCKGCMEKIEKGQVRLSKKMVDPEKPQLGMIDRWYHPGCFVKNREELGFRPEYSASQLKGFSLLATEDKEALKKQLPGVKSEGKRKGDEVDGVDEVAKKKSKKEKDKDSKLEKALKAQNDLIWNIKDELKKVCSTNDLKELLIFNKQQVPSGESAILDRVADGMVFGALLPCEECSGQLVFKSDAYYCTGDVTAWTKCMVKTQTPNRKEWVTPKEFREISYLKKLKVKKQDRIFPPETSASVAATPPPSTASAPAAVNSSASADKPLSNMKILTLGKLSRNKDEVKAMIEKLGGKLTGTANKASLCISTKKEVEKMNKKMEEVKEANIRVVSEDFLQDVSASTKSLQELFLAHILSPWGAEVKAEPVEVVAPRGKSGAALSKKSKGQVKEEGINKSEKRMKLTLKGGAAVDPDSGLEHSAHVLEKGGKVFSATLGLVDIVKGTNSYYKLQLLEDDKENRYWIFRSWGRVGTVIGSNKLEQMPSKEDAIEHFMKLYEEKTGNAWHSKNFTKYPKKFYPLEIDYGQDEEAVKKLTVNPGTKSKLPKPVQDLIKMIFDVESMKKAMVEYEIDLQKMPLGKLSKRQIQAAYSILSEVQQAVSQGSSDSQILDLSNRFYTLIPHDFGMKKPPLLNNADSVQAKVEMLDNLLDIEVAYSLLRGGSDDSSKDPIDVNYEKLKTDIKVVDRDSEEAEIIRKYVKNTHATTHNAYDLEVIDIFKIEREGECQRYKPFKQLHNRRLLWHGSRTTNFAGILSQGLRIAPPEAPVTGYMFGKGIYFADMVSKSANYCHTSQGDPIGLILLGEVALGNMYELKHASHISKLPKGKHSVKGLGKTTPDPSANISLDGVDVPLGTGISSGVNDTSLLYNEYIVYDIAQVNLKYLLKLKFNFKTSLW

As for `O=c1[nH]nc(NC2CCN(C[C@@H](O)[C@@H]3CCc4ccccc4O3)CC2)c2ccccc12` (relative stereo) [Compound 27], the IC50 is 857 nM.
Take `O=c1[nH]nc(C2CCN(Cc3ccccc3)CC2)c2ccccc12` [Compound 1]: the IC50 is 284 nM.
For `O=c1[nH]nc(N[C@@H]2C[C@H]3CC[C@@H](C2)N3CCCC(c2ccc(F)cc2)c2ccc(F)cc2)c2ccccc12` [Compound 3] the value was 430 nM; for `O=c1[nH]nc(C2CCNCC2)c2ccccc12` [Compound 4], 251 nM; for `CCOC(=O)N1[C@@H]2CC[C@H]1C[C@H](Nc1n[nH]c(=O)c3ccccc13)C2` [Compound 11], 86.7 nM.
In the case of `Clc1nnc(NC2CCN(Cc3ccccc3)C2)c2ccccc12` (centres unmarked) [Compound 12], the IC50 is 1140 nM.
To `O=c1[nH]nc(C2CCN(CCCOc3ccc(F)cc3)CC2)c2ccccc12` [Compound 13] belongs 75.5 nM; to `O=c1[nH]nc(N[C@@H]2C[C@H]3CC[C@@H](C2)N3)c2ccccc12` [Compound 15], 139 nM; to `CCOC(=O)N1[C@@H]2CC[C@H]1C[C@H](Nc1nnc(Cl)c3ccccc13)C2` [Compound 24], 973 nM.
With `CCOC(=O)N1CCC(c2n[nH]c(=O)c3ccccc23)CC1` [Compound 25], the IC50 is 2990 nM.
To `Cc1nnc(N2CCN(CCCC(c3ccc(F)cc3)c3ccc(F)cc3)CC2)c2ccccc12` [Compound 29] belongs 1780 nM; to `O=c1[nH]nc(NC2CCCN(CCCC(c3ccc(F)cc3)c3ccc(F)cc3)CC2)c2ccccc12` (centres unmarked) [Compound 30], 442 nM.
To `O=c1[nH]nc(NC2CCCNCC2)c2ccccc12` (centres unmarked) [Compound 34] belongs 120 nM; to `O=c1[nH]nc(NCC2CCCN(Cc3ccccc3)C2)c2ccccc12` (centres unmarked) [Compound 44], 1120 nM.
Turning to `O=c1[nH]nc(NC2CCN(CCCCOc3ccccc3)CC2)c2ccccc12` [Compound 46], the IC50 was 843 nM.
For `CCOC(=O)N1CCC(Nc2n[nH]c(=O)c3ccccc23)C1` (centres unmarked) [Compound 48] the value was 3070 nM; for `O=c1[nH]nc(NCC2CCCN(CCCC(c3ccc(F)cc3)c3ccc(F)cc3)C2)c2ccccc12` (centres unmarked) [Compound 49], 3820 nM.
In the case of `CCOC(=O)N1CCCC(Nc2n[nH]c(=O)c3ccccc23)CC1` (centres unmarked) [Compound 50], the IC50 was 2510 nM.
`O=c1[nH]nc(NC2CCN(Cc3ccccc3)C2)c2ccccc12` (centres unmarked) [Compound 51]: the IC50 is 432 nM.
Consider `O=c1[nH]nc(N2CCN(CCCC(c3ccc(F)cc3)c3ccc(F)cc3)CC2)c2ccccc12` [Compound 52], for which the IC50 is 435 nM.
With `O=c1[nH]nc(NC2CCCN(Cc3ccccc3)C2)c2ccccc12` (centres unmarked) [Compound 53], the IC50 was 1070 nM.
On to `O=c1[nH]nc(N2CCC(c3cccc(C(F)(F)F)c3)C2)c2ccccc12` (centres unmarked) [Compound 55], for which the IC50 is 1650 nM.
In the case of `CCOC(=O)N1CCC(Nc2n[nH]c(=O)c3ccccc23)CC1` [Compound 56], the IC50 was 5640 nM.
For `Fc1ccc(C(CCCN2CCN(c3nnc(Cl)c4ccccc34)CC2)c2ccc(F)cc2)cc1` [Compound 57] the value was 1970 nM; for `CCOC(=O)N1CCN(c2nnc(Cl)c3ccccc23)CC1` [Compound 58], 10000 nM.
For `Clc1nnc(NC2CCN(CCCCOc3ccccc3)CC2)c2ccccc12` [Compound 59] the value was 3300 nM; for `CN(c1nc2ccccc2s1)C1CCN(c2nnc(Cl)c3ccccc23)CC1` [Compound 61], 1290 nM.
Consider `COc1ccc(CCN2CCC(Nc3n[nH]c(=O)c4ccccc34)CC2)cc1` [Compound 63], for which the IC50 was 684 nM.
For `O=c1[nH]nc(NC2CCN(C/C=C/c3ccccc3)CC2)c2ccccc12` [Compound 65] the value was 851 nM.
To `O=c1[nH]nc(C2CCN(C/C=C/c3ccccc3)CC2)c2ccccc12` [Compound 66] belongs 767 nM; to `O=c1[nH]nc(C2CCN(CCCC(c3ccc(F)cc3)c3ccc(F)cc3)CC2)c2ccccc12` [Compound 67], 303 nM.
For `O=c1[nH]nc(C2CCN(CCCCOc3ccccc3)CC2)c2ccccc12` [Compound 68] the value was 274 nM; for `O=c1[nH]nc(C2CCN(c3ncccn3)CC2)c2ccccc12` [Compound 69], 2150 nM; for `Cc1nnc(N2CCN(CCn3c(=O)[nH]c4ccccc4c3=O)CC2)c2ccccc12` [Compound 70], 3440 nM.
As to `Cc1nnc(N2CCN(CCn3c(=O)[nH]c4ccccc43)CC2)c2ccccc12` [Compound 71], the IC50 is 7410 nM.
For `Cc1nc2ccccn2c(=O)c1CCN1CCN(c2nnc(C)c3ccccc23)CC1` [Compound 72] the value was 8970 nM; for `Cc1nc2sccn2c(=O)c1CCN1CCN(c2nnc(C)c3ccccc23)CC1` [Compound 73], 1900 nM; for `Cc1nc2scc(C)n2c(=O)c1CCN1CCN(c2nnc(C)c3ccccc23)CC1` [Compound 74], 3210 nM.
Turning to `Cc1nc2n(c(=O)c1CCN1CCN(c3nnc(C)c4ccccc34)CC1)CCS2` [Compound 75], the IC50 is 4240 nM.
On to `Cc1nc2n(c(=O)c1CCN1CCN(c3nnc(C)c4ccccc34)CC1)CCCS2` [Compound 76], for which the IC50 is 3630 nM.
For `Clc1nnc(N2CCN(c3ccccc3)CC2)c2ccccc12` [Compound 77] the value was 1320 nM.
